Key:
[1] = molecular target: T1, 5-hydroxytryptamine receptor 1A (Homo sapiens, UniProt P08908); assay: Binding affinity at human cloned 5-hydroxytryptamine 1A receptor expressed in HeLa cells by [3H]8-hydroxy-2-(di-n-propylamino)tetraline displacement.; type: cell-based
T1 sequence (P08908 whole entry): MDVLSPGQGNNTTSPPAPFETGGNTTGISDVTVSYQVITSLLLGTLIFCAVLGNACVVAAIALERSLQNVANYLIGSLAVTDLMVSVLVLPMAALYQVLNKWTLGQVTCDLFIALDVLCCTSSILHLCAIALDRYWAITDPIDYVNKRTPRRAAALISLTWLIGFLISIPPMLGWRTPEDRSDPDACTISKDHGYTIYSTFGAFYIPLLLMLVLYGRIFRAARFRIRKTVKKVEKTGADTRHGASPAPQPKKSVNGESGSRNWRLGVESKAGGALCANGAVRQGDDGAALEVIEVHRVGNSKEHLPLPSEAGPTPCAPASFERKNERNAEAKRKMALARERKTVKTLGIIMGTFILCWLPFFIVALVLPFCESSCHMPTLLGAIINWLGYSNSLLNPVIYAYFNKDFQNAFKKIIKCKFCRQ

[2] = molecular target: T2, Adrenergic receptor alpha-2 (Rattus norvegicus, UniProt P22086+P19328+P22909); assay: Binding affinity at native Alpha-2 adrenergic receptor in rat cerebral cortex by [3H]rauwolscine displacement.; type: tissue-based
T2 sequence (P22086 whole entry): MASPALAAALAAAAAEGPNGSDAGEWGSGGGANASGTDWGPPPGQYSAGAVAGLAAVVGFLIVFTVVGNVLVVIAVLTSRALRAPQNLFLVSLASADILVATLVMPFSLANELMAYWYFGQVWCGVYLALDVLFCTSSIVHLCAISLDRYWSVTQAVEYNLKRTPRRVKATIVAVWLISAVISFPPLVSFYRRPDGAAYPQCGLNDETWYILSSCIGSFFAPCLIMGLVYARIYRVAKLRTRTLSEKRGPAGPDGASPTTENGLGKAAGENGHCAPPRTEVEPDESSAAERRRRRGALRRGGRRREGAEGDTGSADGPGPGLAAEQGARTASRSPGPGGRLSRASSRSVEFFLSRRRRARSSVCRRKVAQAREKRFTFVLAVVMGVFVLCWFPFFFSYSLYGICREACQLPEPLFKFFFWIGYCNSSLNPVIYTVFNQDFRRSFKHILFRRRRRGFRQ
T2 sequence (P19328 whole entry): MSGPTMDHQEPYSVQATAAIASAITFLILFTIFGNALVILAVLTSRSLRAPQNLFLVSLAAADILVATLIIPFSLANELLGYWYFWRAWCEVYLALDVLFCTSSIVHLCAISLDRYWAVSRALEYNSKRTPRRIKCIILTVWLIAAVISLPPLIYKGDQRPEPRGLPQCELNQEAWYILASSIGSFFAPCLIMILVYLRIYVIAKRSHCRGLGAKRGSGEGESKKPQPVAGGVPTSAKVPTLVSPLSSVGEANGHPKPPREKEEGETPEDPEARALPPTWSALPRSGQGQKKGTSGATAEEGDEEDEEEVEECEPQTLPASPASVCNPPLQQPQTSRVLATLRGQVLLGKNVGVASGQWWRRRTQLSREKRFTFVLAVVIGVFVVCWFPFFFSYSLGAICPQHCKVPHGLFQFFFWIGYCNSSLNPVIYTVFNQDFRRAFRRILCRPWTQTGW
T2 sequence (P22909 whole entry): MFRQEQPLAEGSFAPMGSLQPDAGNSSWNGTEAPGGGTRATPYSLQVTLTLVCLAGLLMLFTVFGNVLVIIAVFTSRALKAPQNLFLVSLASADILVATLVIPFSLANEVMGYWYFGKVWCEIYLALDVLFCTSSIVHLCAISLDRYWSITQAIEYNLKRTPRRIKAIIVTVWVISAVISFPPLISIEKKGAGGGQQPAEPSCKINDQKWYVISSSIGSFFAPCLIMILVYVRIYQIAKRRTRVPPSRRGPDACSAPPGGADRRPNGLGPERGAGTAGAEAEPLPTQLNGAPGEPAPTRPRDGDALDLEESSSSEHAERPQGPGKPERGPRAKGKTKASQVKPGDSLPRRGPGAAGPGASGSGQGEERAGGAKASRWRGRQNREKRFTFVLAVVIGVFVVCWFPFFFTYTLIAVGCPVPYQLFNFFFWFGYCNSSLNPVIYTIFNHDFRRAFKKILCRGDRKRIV

[3] = molecular target: T3, Alpha-1A adrenergic receptor (Homo sapiens, UniProt P35348); assay: Binding affinity at human cloned Alpha-1A adrenergic receptor in chinese hamster ovary cells by [3H]-prazosin displacement.; type: cell-based, CHO
T3 sequence (P35348 whole entry): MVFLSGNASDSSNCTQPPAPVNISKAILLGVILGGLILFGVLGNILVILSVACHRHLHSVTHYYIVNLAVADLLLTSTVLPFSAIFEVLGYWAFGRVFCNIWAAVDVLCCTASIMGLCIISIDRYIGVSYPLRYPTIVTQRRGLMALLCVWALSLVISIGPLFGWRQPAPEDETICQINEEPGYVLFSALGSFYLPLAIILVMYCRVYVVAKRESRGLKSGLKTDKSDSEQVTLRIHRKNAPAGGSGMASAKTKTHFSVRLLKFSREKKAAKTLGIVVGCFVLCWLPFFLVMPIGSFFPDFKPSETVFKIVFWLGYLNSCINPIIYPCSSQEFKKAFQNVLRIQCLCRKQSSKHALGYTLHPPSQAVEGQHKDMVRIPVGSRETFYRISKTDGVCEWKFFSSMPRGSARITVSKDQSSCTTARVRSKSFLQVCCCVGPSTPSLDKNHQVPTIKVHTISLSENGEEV

[4] = molecular target: T4, Alpha-1B adrenergic receptor (Rattus norvegicus, UniProt P15823); assay: Antagonism of phenylephrine stimulated contraction of the rat isolated spleen.; type: functional, tissue-based; conditions: read-out: pA2 (converted)
T4 sequence (P15823 whole entry): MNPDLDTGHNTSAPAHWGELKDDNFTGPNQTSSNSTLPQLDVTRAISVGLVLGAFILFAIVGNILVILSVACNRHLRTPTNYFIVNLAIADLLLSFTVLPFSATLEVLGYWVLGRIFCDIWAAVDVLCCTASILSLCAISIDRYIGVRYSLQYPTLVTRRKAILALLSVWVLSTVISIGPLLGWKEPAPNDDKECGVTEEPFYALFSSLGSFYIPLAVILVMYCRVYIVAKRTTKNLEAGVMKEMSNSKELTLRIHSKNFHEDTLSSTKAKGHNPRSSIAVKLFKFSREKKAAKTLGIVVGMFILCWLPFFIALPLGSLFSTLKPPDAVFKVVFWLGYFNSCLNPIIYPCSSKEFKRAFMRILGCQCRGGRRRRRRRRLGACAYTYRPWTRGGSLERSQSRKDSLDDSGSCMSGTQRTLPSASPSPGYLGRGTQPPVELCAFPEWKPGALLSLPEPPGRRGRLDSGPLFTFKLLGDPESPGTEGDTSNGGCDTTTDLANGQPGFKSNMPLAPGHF

D(2) dopamine receptor = D(2) dopamine receptor (Rattus norvegicus, UniProt P61169); assay: Binding affinity at native Dopamine receptor D2 in rat striatum by [3H]spiperone displacement.; type: tissue-based
D(2) dopamine receptor, sequence (P61169 whole entry): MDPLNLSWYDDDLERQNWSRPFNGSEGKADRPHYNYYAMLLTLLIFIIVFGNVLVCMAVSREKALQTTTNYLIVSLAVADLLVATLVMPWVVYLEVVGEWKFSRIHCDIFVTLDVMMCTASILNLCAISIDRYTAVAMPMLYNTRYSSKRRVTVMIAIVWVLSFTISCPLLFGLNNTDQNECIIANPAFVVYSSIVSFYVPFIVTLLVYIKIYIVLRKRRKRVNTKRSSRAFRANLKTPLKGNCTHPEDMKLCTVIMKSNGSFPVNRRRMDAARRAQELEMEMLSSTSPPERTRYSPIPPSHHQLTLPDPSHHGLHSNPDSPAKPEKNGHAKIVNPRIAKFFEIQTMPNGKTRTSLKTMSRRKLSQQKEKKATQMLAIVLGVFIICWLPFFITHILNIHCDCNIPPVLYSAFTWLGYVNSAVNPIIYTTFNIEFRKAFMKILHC

## COc1cc2nc(N(C)CCCCCCN(C)C(=O)c3cccc(CN(C)C)c3)nc(N)c2cc1OC
[1]
  Ki: 0.741 µM
[2]
  Log Ki: -7.72
[3]
  Ki: 0.000324 µM
[4]
  Kb: 0.0372 µM
D(2) dopamine receptor
  Ki: 1.95 µM
